Source: PubChem BioAssay AID200 (DTP/NCI, 2004)
Where “and” joins values, the source holds several entries; their conditions need not be identical. Identical values can stand only once. Inconclusive results and toxic doses are left out. Where a SMILES comes first, the peptide text is derived from it. [ ]: non-standard residue; d: D form. The star is where a group is joined. Cbz = O=C(OCc1ccccc1)*; Nva = CCC[CH](N)C(=O)O

System: B6C3F1 mice, B16 melanoma ip, median survival T/C
Experiment: NCI In Vivo Anticancer Drug Screen. Data for tumor model B16 Melanoma (intraperitoneal) in B6C3F1 mice
Details: endpoint: median survival time, schedule: Q01DX009 (ip), higher = longer survival
Outline: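 Transplantable tumor in mice; treated vs vehicle control groups; survival or tumor size measured; value = T/C ratio.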

[1] = dose: 12.5 mg/kg/injection, vehicle: Klucel (hydroxypropylcellulose) (HPC)
[2] = dose: 25.0 mg/kg/injection, vehicle: Klucel (hydroxypropylcellulose) (HPC)
[3] = dose: 100.0 mg/kg/injection, vehicle: Klucel (hydroxypropylcellulose) (HPC)
[4] = dose: 200.0 mg/kg/injection, vehicle: Klucel (hydroxypropylcellulose) (HPC)
[5] = dose: 400.0 mg/kg/injection, vehicle: Klucel (hydroxypropylcellulose) (HPC)

In the case of `c1ccc2c(NCCCCCCNc3c4ccccc4nc4ccccc34)c3ccccc3nc2c1`, the T/C (dose: 0.62 mg/kg/injection, vehicle: Klucel (hydroxypropylcellulose) (HPC)) was 116 % of control, the T/C (dose: 1.25 mg/kg/injection, vehicle: water) was 111 % of control and 116 % of control and the T/C (dose: 1.58 mg/kg/injection, vehicle: Klucel (hydroxypropylcellulose) (HPC)) was 154 % of control. The T/C (dose: 2.37 mg/kg/injection, vehicle: Klucel (hydroxypropylcellulose) (HPC)) was 179 % of control, the T/C (dose: 2.5 mg/kg/injection, vehicle: Klucel (hydroxypropylcellulose) (HPC)) was 151 % of control and the T/C (dose: 2.5 mg/kg/injection, vehicle: water) was 112 % of control and 122 % of control. For the same compound, the T/C (dose: 5.0 mg/kg/injection, vehicle: Klucel (hydroxypropylcellulose) (HPC)) was 189 % of control, the T/C (dose: 5.0 mg/kg/injection, vehicle: water) was 123 % of control and the T/C (dose: 5.33 mg/kg/injection, vehicle: Klucel (hydroxypropylcellulose) (HPC)) was 213 % of control. For the same compound, the T/C (dose: 8.0 mg/kg/injection, vehicle: Klucel (hydroxypropylcellulose) (HPC)) was 199 % of control, the T/C (dose: 10.0 mg/kg/injection, vehicle: Klucel (hydroxypropylcellulose) (HPC)) was 200 % of control and the T/C (dose: 10.0 mg/kg/injection, vehicle: water) was 153 % of control. The T/C (dose: 12.0 mg/kg/injection, vehicle: Klucel (hydroxypropylcellulose) (HPC)) was 190 % of control, the T/C (dose: 20.0 mg/kg/injection, vehicle: Klucel (hydroxypropylcellulose) (HPC)) was 206 % of control and the T/C (dose: 20.0 mg/kg/injection, vehicle: water) was 162 % of control.
`CC(=O)NC(CCc1ccc(Cl)c(Cl)c1)c1cccc(O)c(=O)c1` (stereo not given) was tested, and the T/C (dose: 3.0 mg/kg/injection, vehicle: Klucel (hydroxypropylcellulose) (HPC)) was 93 % of control, the T/C (dose: 6.0 mg/kg/injection, vehicle: Klucel (hydroxypropylcellulose) (HPC)) was 101 % of control and the T/C [1] was 101 % of control. The T/C [2] was 105 % of control and the T/C (dose: 50.0 mg/kg/injection, vehicle: Klucel (hydroxypropylcellulose) (HPC)) was 105 % of control.
`COC12C(COC(=O)NCCO)C3=C(C(=O)C(C)=C(N)C3=O)N1CC1NC12` (stereo not given) was tested, and the T/C (dose: 3.13 mg/kg/injection, vehicle: Klucel (hydroxypropylcellulose) (HPC)) was 110 % of control, the T/C [1] was 205 % of control and the T/C [2] was 121 % of control.
With `NC(=O)CCC(NC(=O)OCC1c2ccccc2-c2ccccc21)C(=O)O` (stereo not given) the T/C [3] was 98 % of control, the T/C [4] was 93 % of control and the T/C [5] was 94 % of control.
`CC1[C@@H]2CC=C3[C@H]4CCC5Cc6nc7c(nc6C[C@@]5(C)C4CC(=O)[C@]32CO[C@]12OC(C)(C)CC2O)CC1CC[C@@H]2C3=C[C@H]4O[C@@]5(O[C@@](C)(CO)C[C@@H]5O)C(C)[C@@]4(O)[C@]3(C)[C@@H](O)CC2[C@]1(C)C7` (stereo not given in full) was tested, and the T/C (dose: 6.25 micrograms/kg/injection, vehicle: saline + alcohol) was 101 % of control, the T/C (dose: 12.5 micrograms/kg/injection, vehicle: saline + alcohol) was 98 % of control and the T/C (dose: 25.0 micrograms/kg/injection, vehicle: saline + alcohol) was 98 % of control. For the same compound, the T/C (dose: 50.0 micrograms/kg/injection, vehicle: saline + alcohol) was 102 % of control.
`CC(C)C(NC(=O)CCNC(=O)OCc1ccccc1)C(=O)O` (stereo not given) was tested, and the T/C [3] was 100 % of control, the T/C [4] was 116 % of control and the T/C [5] was 87 % of control.
With `O=c1cc(-c2ccc3ccccc3n2)oc2ccc(Cl)cc12` the T/C (dose: 10.0 mg/kg/injection, vehicle: saline with Tween-80) was 99 % of control, the T/C (dose: 20.0 mg/kg/injection, vehicle: saline with Tween-80) was 101 % of control and the T/C (dose: 40.0 mg/kg/injection, vehicle: saline with Tween-80) was 95 % of control.
In the case of `C=CCOCC1CO1` (stereo not given), the T/C (dose: 12.5 mg/kg/injection, vehicle: saline) was 98 % of control and 99 % of control, the T/C (dose: 25.0 mg/kg/injection, vehicle: saline) was 111 % of control and 101 % of control and the T/C (dose: 50.0 mg/kg/injection, vehicle: saline) was 92 % of control and 103 % of control. The T/C (dose: 100.0 mg/kg/injection, vehicle: saline) was 111 % of control and 104 % of control and the T/C (dose: 200.0 mg/kg/injection, vehicle: saline) was 111 % of control and 99 % of control.
With `CC(C)(C)N(C(=O)OCC1c2ccccc2-c2ccccc21)C(CO)C(=O)O` (stereo not given) the T/C [3] was 96 % of control.
For `CCCC(NC(=O)OCc1ccccc1)C(=O)NC(Cc1ccccc1)C(=O)O` (stereo not given) (Cbz-[Nva]-Phe-OH; configuration not given here), the T/C [3] was 101 % of control, the T/C [4] was 104 % of control and the T/C [5] was 89 % of control.
